# Legend:
# Type in all cases: cell-based, rat
# Cocul-HP cells [1] = assay: AlamarBlue proliferation assay; settings: 24 h, FIG. 4
# Experimental: (§1) Wistar rats (150-200 gm) were used to isolate bone marrow (BM). Rats were sacrificed and their femurs were removed aseptically. The bone marrow (BM) was flushed from the shaft of the bone by clipping of the epiphysial ends and flushing using a 26-gauge needle with ˜2 ml of Dulbecco's Modified Eagle's medium (DMEM) supplemented with 5% FBS, 1% penicillin/streptomycin solution, 1% sodium pyruvate and L-glutamine. The BM was then centrifuged for 8 minutes at 1000 rpm. Following centrifugation, cell pellet was collected and 1 ml of fresh DMEM was added. The cell viability was checked using trypan blue exclusion method. The cells were then divided into three equal parts. One part was co-cultured with freshly isolated hippocampal cells in T75 cm^2 flask, 2nd with freshly isolated cortical cells and the third portion (BM cells only) was cultured as a control. The cell density for co-cultures was set at 140,000 cells/ml for each type of culture. The cultured flasks were then incubated at 37° C. and 5% CO2. After 4-5 days, floating hematopoietic cells and dead debris/tissues of hippocampus and cortex were removed and bone marrow stromal cells (BMSCs) were recovered due to their tendency to adhere. Medium was replaced after every 3 to 4 days till cells became 80-90% confluent.
# (§2) AlamarBlue (AB), a water-soluble dye having resazurin salt was used to evaluate the effect of isoxylitones on the proliferation of the cultured cells. AB measures mitochondrial reductase activity of live cells. The resazurin has ability to enter the cytosol of viable cell and converted to the reduced fluorescent form resorufin by mitochondrial enzyme activity by accepting electrons from NADPH, FADH, FMNH, NADH as well as from the cytochromes. […] The amount of fluorescence produced is proportional to the number of living cells (Al-Nasiry, Geusens, Hanssens, Luyten, Pijnenborg, 2007). […] After incubation, the fluorescence intensity in each well was recorded at an excitation wavelength of 570 nm and an emission wavelength of 600 nm. The rate of cell proliferation was expressed as the relative fluorescence intensity. […] The blank media fluorescence measurement was subtracted from fluorescence measurements of cells from the same run.
# (§3) Formula used to calculate the percentage reduction of AB using absorbance readings:
# (§4) [formula] Where: O1=molar extinction coefficient (E) of oxidized alamarBlue® (Blue) at 570 nm O2=E of oxidized alamarBlue® at 600 nm A1=absorbance of test wells at 570 nm A2=absorbance of test wells at 600 nm P1=absorbance of positive growth control well (cells plus alamarBlue® but no test agent) at 570 nm P2=absorbance of positive growth control well (cells plus alamarBlue® but no test agent at 600 nm
# Cocul-CTX cells [2] = assay: AlamarBlue proliferation assay; settings: 24 h, FIG. 4
# Experimental: as §1, §2, §3, §4
# Cocul-HP cells [3] = assay: BrdU proliferation ELISA assay; settings: 24 h, increase reported with 100 and 150 μg/mL, FIG. 6
# Experimental: as §1, with “confluent. […]” for “confluent.”
# Cocul-CTX cells [4] = assay: BrdU proliferation ELISA assay; settings: 150 μg/ml, 24 h, FIG. 6
# Experimental: as §1, with “confluent. […]” for “confluent.”
# hypoxic cortical cells = assay: In-vitro model of hypoxic pre-conditioning; settings: 2 h hypoxia then treatment at various concentrations, vs positive control hypoxic cells, FIG. 7
structure (smiles),measurement,setting,value
CC(=O)C=C1C=C(C)CC(C)(C)C1 (mixture of isomers) [isoxylitones],highest proliferative dose,Cocul-HP cells [1],150 µg/mL
same,growth proliferation (Alamar blue),Cocul-HP cells [1]; various doses,dose dependent growth proliferative effect
same,highest proliferative dose,Cocul-CTX cells [2],150 µg/mL
same,growth proliferation (Alamar blue),Cocul-CTX cells [2]; various doses,dose dependent growth proliferative effect
same,BrdU positive cells,Cocul-HP cells [3],significantly elevated the BrdU positive cells
same,BrdU positive cells,Cocul-CTX cells [4],increased BrdU positive cells
same,recovery of hypoxic cells (phase-contrast morphology),hypoxic cortical cells,Recovery of hypoxic cells clearly observed
